Inconclusive results and toxic doses are left out. Rule for the calls: active = survival T/C of 150% or more; inactive = T/C below 125% in these data.
System: P388 leukemia ip, CD2F1 mice, survival T/C
Test: NCI In Vivo Anticancer Drug Screen. Data for tumor model P388 Leukemia (intraperitoneal) in CD2F1 (CDF1) mice
Settings: endpoint: median survival time, higher = longer survival
Summary of the method: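 Mice carrying the transplanted tumor received test compound or vehicle. Survival was recorded in each group, and the value is the treated-group measurement divided by that of the vehicle-treated control group.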

[1] = dose: 100.0 mg/kg/injection, schedule: Q01DX001 (ip), vehicle: saline with Tween-80
[2] = dose: 200.0 mg/kg/injection, schedule: Q01DX001 (ip), vehicle: saline with Tween-80
[3] = dose: 400.0 mg/kg/injection, schedule: Q01DX001 (ip), vehicle: saline with Tween-80
[4] = dose: 50.0 mg/kg/injection, schedule: Q01DX005 (ip), vehicle: Klucel (hydroxypropylcellulose) (HPC)
[5] = dose: 100.0 mg/kg/injection, schedule: Q01DX005 (ip), vehicle: Klucel (hydroxypropylcellulose) (HPC)
[6] = dose: 200.0 mg/kg/injection, schedule: Q01DX005 (ip), vehicle: Klucel (hydroxypropylcellulose) (HPC)
[7] = dose: 100.0 mg/kg/injection, schedule: Q01DX009 (ip), vehicle: Klucel (hydroxypropylcellulose) (HPC)
[8] = dose: 200.0 mg/kg/injection, schedule: Q01DX009 (ip), vehicle: Klucel (hydroxypropylcellulose) (HPC)
[9] = dose: 50.0 mg/kg/injection, schedule: Q01DX009 (ip), vehicle: saline
[10] = dose: 100.0 mg/kg/injection, schedule: Q01DX009 (ip), vehicle: saline
[11] = dose: 12.5 mg/kg/injection, schedule: Q01DX009 (ip), vehicle: saline with Tween-80
[12] = dose: 25.0 mg/kg/injection, schedule: Q01DX009 (ip), vehicle: saline with Tween-80
[13] = dose: 50.0 mg/kg/injection, schedule: Q01DX005 (ip), vehicle: saline with Tween-80
[14] = dose: 100.0 mg/kg/injection, schedule: Q01DX005 (ip), vehicle: saline with Tween-80
[15] = dose: 200.0 mg/kg/injection, schedule: Q01DX005 (ip), vehicle: saline with Tween-80
[16] = dose: 12.5 mg/kg/injection, schedule: Q01DX009 (ip), vehicle: other
[17] = dose: 50.0 mg/kg/injection, schedule: Q01DX009 (ip), vehicle: other
[18] = dose: 100.0 mg/kg/injection, schedule: Q01DX009 (ip), vehicle: other
[19] = dose: 100.0 mg/kg/injection, schedule: Q04DX002 (ip), vehicle: saline with Tween-80
[20] = dose: 200.0 mg/kg/injection, schedule: Q04DX002 (ip), vehicle: saline with Tween-80

Measured: T/C

CC12CCC3(CO3)CC1CCC1C2CCC2(C)C1CCC21CO1 (centres undefined)
inactive: [1] 102 % of control | [2] 99 % of control | [3] 88 % of control

COC(=O)C1C(Sc2ccccc2)CCN1C(C)=O (centres undefined)
inactive: dose: 50.0 mg/kg/injection, schedule: Q01DX005 (ip), vehicle: saline 88 % of control | dose: 100.0 mg/kg/injection, schedule: Q01DX005 (ip), vehicle: saline 88 % of control | dose: 200.0 mg/kg/injection, schedule: Q01DX005 (ip), vehicle: saline 88 % of control

C=CCOC(=O)C1CC2OC2CC1C (centres undefined)
inactive: dose: 75.0 mg/kg/injection, schedule: Q01DX009 (ip), vehicle: saline with Tween-80 96 % of control | dose: 150.0 mg/kg/injection, schedule: Q01DX009 (ip), vehicle: saline with Tween-80 103 % of control | dose: 300.0 mg/kg/injection, schedule: Q01DX009 (ip), vehicle: saline with Tween-80 97 % of control

CC(C)C1=CC23CCC4C(C)(C(=O)O)CCCC4(C)C2CC1OO3 (centres undefined)
inactive: dose: 100.0 mg/kg/injection, schedule: Q01DX009 (ip), vehicle: saline sonified 95 % of control | dose: 200.0 mg/kg/injection, schedule: Q01DX009 (ip), vehicle: saline sonified 100 % of control | dose: 400.0 mg/kg/injection, schedule: Q01DX009 (ip), vehicle: saline sonified 100 % of control

Cc1nc2[nH]ncc2c(=O)n1-c1ccccc1Cl
inactive: [4] 101 % of control | [5] 101 % of control | [6] 99 % of control

O=C1OCC2C1Cc1cc(O)c(O)cc1C2c1ccc(O)c(O)c1 (centres undefined)
inactive: [7] 94 % of control | [8] 92 % of control | dose: 400.0 mg/kg/injection, schedule: Q01DX009 (ip), vehicle: Klucel (hydroxypropylcellulose) (HPC) 111 % of control

CCOP(=O)(CSCCC1(C)NC(=O)NC1=O)OCC (centres undefined)
inactive: dose: 60.0 mg/kg/injection, schedule: Q01DX005 (ip), vehicle: saline 102 % of control | dose: 120.0 mg/kg/injection, schedule: Q01DX005 (ip), vehicle: saline 103 % of control | dose: 240.0 mg/kg/injection, schedule: Q01DX005 (ip), vehicle: saline 102 % of control

Clc1nc2ccccc2nc1CI
inactive: dose: 2.66 mg/kg/injection, schedule: Q01DX009 (ip), vehicle: other 119 % of control | dose: 4.0 mg/kg/injection, schedule: Q01DX009 (ip), vehicle: other 119 % of control | dose: 6.0 mg/kg/injection, schedule: Q01DX009 (ip), vehicle: other 119 % of control | dose: 9.0 mg/kg/injection, schedule: Q01DX009 (ip), vehicle: other 114 % of control

O=C1OC(=O)C2C3C=CC(C4C=C(c5ccccc5)C43)C12 (centres undefined)
inactive: [9] 106 % of control | [10] 92 % of control | dose: 200.0 mg/kg/injection, schedule: Q01DX009 (ip), vehicle: saline 107 % of control

O=S(=O)(O)C(F)(F)F
inactive: dose: 25.0 mg/kg/injection, schedule: Q01DX005 (ip), vehicle: water 101 % of control | dose: 50.0 mg/kg/injection, schedule: Q01DX005 (ip), vehicle: water 100 % of control | dose: 200.0 mg/kg/injection, schedule: Q01DX005 (ip), vehicle: water 100 % of control

Clc1ccc2[nH]c3ccc(Cl)cc3c2c1
inactive: [4] 104 % of control | [5] 113 % of control | [6] 113 % of control

CC(=O)Nc1cc(NC(C)=O)cc(C(=O)O)c1
inactive: dose: 60.0 mg/kg/injection, schedule: Q01DX005 (ip), vehicle: Klucel (hydroxypropylcellulose) (HPC) 90 % of control | dose: 120.0 mg/kg/injection, schedule: Q01DX005 (ip), vehicle: Klucel (hydroxypropylcellulose) (HPC) 90 % of control | dose: 240.0 mg/kg/injection, schedule: Q01DX005 (ip), vehicle: Klucel (hydroxypropylcellulose) (HPC) 90 % of control

C/C=C/C=C/C(O)CC(=O)N1OC2(C)c3ccccc3C1(C)c1ccccc12 (centres undefined)
inactive: dose: 100.0 mg/kg/injection, schedule: Q04DX003 (ip), vehicle: saline + alcohol 92 % of control | dose: 200.0 mg/kg/injection, schedule: Q04DX003 (ip), vehicle: saline + alcohol 92 % of control | dose: 400.0 mg/kg/injection, schedule: Q04DX003 (ip), vehicle: saline + alcohol 98 % of control

C/C=C(/C)C(=O)O[C@H]1C[C@H](C(C)C)c2cc(C)c(O)cc2[C@H]1C
inactive: dose: 57.5 mg/kg/injection, schedule: Q01DX001 (ip), vehicle: Klucel (hydroxypropylcellulose) (HPC) 100 % of control | dose: 115.0 mg/kg/injection, schedule: Q01DX001 (ip), vehicle: Klucel (hydroxypropylcellulose) (HPC) 97 % of control | dose: 230.0 mg/kg/injection, schedule: Q01DX001 (ip), vehicle: Klucel (hydroxypropylcellulose) (HPC) 99 % of control

O=c1oc2c(-c3c(O)c(=O)oc4ccccc34)cc(O)cc2s1
inactive: [4] 96 % of control | [5] 103 % of control | [6] 104 % of control

CC1=C(Br)C(c2ccccc2)=Nc2ccccc2N1
inactive: [11] 123 % of control | [12] 116 % of control | [9] 119 % of control | [10] 110 % of control

O=C1NC(=O)c2cc(C(F)(F)F)ccc21
inactive: dose: 3.0 mg/kg/injection, schedule: Q01DX009 (ip), vehicle: saline with Tween-80 95 % of control | dose: 6.0 mg/kg/injection, schedule: Q01DX009 (ip), vehicle: saline with Tween-80 104 % of control | dose: 12.0 mg/kg/injection, schedule: Q01DX009 (ip), vehicle: saline with Tween-80 90 % of control

C(=C\c1ccncc1)/c1ccncc1
inactive: [11] 90 % of control | [12] 90 % of control | dose: 50.0 mg/kg/injection, schedule: Q01DX009 (ip), vehicle: saline with Tween-80 101 % of control | [7] 89 % of control | dose: 100.0 mg/kg/injection, schedule: Q01DX009 (ip), vehicle: saline with Tween-80 107 % of control | [8] 92 % of control

CCN(CC)N=Nc1ccc(NC(C)=O)cc1
inactive: dose: 6.25 mg/kg/injection, schedule: Q04DX003 (ip), vehicle: Klucel (hydroxypropylcellulose) (HPC) 102 % of control | dose: 12.5 mg/kg/injection, schedule: Q04DX003 (ip), vehicle: Klucel (hydroxypropylcellulose) (HPC) 101 % of control | dose: 25.0 mg/kg/injection, schedule: Q04DX003 (ip), vehicle: Klucel (hydroxypropylcellulose) (HPC) 102 % of control

OCC(O)C(O)CO (centres undefined)
inactive: [13] 98 % of control | [14] 104 % of control | [15] 104 % of control

CC(=O)N(CCCN1C(=O)c2ccccc2C1=O)c1ccc2c(c1)c(-c1ccccc1)nc1cc([N+](=O)[O-])ccc12
inactive: dose: 3.13 mg/kg/injection, schedule: Q01DX009 (ip), vehicle: other 98 % of control | dose: 6.25 mg/kg/injection, schedule: Q01DX009 (ip), vehicle: other 95 % of control | [16] 87 % of control | [17] 106 % of control | [18] 96 % of control

CCOC(=O)Nc1cc(OC)cc2ccc(C)nc12
inactive: [16] 88 % of control | [17] 98 % of control | [18] 99 % of control | dose: 200.0 mg/kg/injection, schedule: Q01DX009 (ip), vehicle: other 98 % of control

CSCc1cc(C)ccc1NC(C)=O
inactive: dose: 50.0 mg/kg/injection, schedule: Q04DX002 (ip), vehicle: saline with Tween-80 98 % of control | [1] 99 % of control | [19] 98 % of control | [2] 99 % of control | [20] 102 % of control | [3] 100 % of control

CC(C)CC(N)CO (centres undefined)
inactive: dose: 50.0 mg/kg/injection, schedule: Q01DX005 (ip), vehicle: suspension in saline 105 % of control | dose: 100.0 mg/kg/injection, schedule: Q01DX005 (ip), vehicle: suspension in saline 106 % of control | dose: 200.0 mg/kg/injection, schedule: Q01DX005 (ip), vehicle: suspension in saline 106 % of control

OCC(O)C1OC(c2ccccc2)OC2COC(c3ccccc3)OC21 (centres undefined)
inactive: [19] 97 % of control | [20] 86 % of control | dose: 400.0 mg/kg/injection, schedule: Q04DX002 (ip), vehicle: saline with Tween-80 89 % of control

O=C(CCc1n[nH]c(=S)o1)Nc1ccccc1
inactive: [13] 102 % of control | [14] 95 % of control | [15] 96 % of control
